Our source for the Km values is paper PMC4498228, “Biotransformation of Endocrine-Disrupting Compounds in Groundwater: Bisphenol A, Nonylphenol, Ethynylestradiol and Triclosan by a Laccase Cocktail from Pycnoporus sanguineus CS43” (Water, Air, and Soil Pollution, 2015).

For this assay, the system named is T1, laccase cocktail (LacI/LacII) from Pycnoporus sanguineus CS43.
T1 construct: gene Lac I; native secreted enzymes
In words: transformation rates at varied EDC concentration, Michaelis-Menten fit (HPLC-UV). The assay is classed as biochemical, Trametes sanguinea. To be noted: free laccase cocktail (two isoforms), 100 U/L, pH 5 McIlvaine buffer, 25 °C, no mediator, read-out: Catalytic parameters / K m /. The text has this:
transformation rates at varied EDC concentration, Michaelis-Menten fit (HPLC-UV) on laccase cocktail (LacI/LacII) from Pycnoporus sanguineus CS43

SMILES strings stand for the structures. Read-outs that look alike come from different tables or passages of the source.

For `CC(C)(c1ccc(O)cc1)c1ccc(O)cc1` [BPA, bisphenol A], the Km (called Kapp in the text) was determined as 482 µM.
In the case of `C#C[C@]1(O)CC[C@H]2[C@@H]3CCc4cc(O)ccc4[C@H]3CC[C@@]21C` [EE2, 17-α-ethynylestradiol], the Km (apparent Km) was determined as 32 µM.
On the same count and under the same terms, the same measure for `CCCCCCCCCc1ccc(O)cc1` [NP, 4-nonylphenol]: 73.6 µM; for `Oc1cc(Cl)ccc1Oc1ccc(Cl)cc1Cl` [TCS, triclosan]: 302 µM.
